{
  "source": "patent US10626368B2",
  "about": "“Method for inducing cerebral cortex neurons” (KYOTO UNIVERSITY, priority 2015, dated 2020)",
  "key": {"[1]": {"system": "iPS cells (836B1)", "test": "Immunostaining for CoupTF1 and Ctip2 on day 46, suspension culture with various WNT inhibitors (Example 4)", "assay_type": "cell-based, human", "details": "50 nM C59, 100 nM LGK-974, 1 μM ICG-001, day 46; C59 and LGK-974 compared with each other", "method": "On the day before induction of differentiation, in order to separate the iPS cells (836B1), which had been cultured in a culture medium to which 10 μM Y-27632 had been added, from the SNL feeder cells, the SNL cells were removed with CTK and the remaining cells were then dissociated using Accumax. The cells were transferred on a 96-well plate (Lipidure-coat 96-well plate) in an amount of 9×10^3 cells per well. Thereafter, the cells were subjected to a suspension culture in DMEM/F12 comprising 50 μM Y-27632, 10 μM SB43152, 10 ng/ml bFGF, various types of Wnt inhibitors (50 nM C59, 100 nM LGK-974, or 1 μM ICG-001 (Cellagen Technology)), 100 nM LDN193189, 10% KSR, 0.1 mM MEM non-essential amino acid, 0.1 mM 2-mercaptoethanol, and 2 mM L-Gln (initiation of differentiation induction, day 0). […] Three days later, the medium was exchanged with DMEM/F12 comprising various types of WNT inhibitors (C59, LGK-974, or ICG-001), 100 nM LDN193189, 10% KSR, 0.1 mM MEM non-essential amino acid, 0.1 mM 2-mercaptoethanol, and 2 mM L-Gln (day 6). Thereafter, the medium was exchanged with a fresh one of the same type every 3 days, and the culture was carried out for 18 days after the initiation of differentiation induction (day 18).\nA half of the medium on day 18 was removed by aspiration, and thereafter, Neurobasal, to which B27, 2 mM L-Gln, and 10 units/ml penicillin and streptomycin had been added, was added in the same amount as the removed medium to the remaining medium. Likewise, a half amount of the medium was exchanged on day 21. On day 24, the cells were transferred on a petri dish, and thereafter, a half of the medium was exchanged every 3 or 4 days. On day 46, the obtained cells were immunostained using antibodies against CoupTF1 and Ctip2. […] From the aforementioned results, it was confirmed that nerve cells existing in the desired corticocerebral motor area can be induced even by utilizing the WNT inhibitor LGK-974 having a similar action to C59."}, "[2]": {"system": "ES cells (Kh-1)", "test": "Adhesion of spheres to OFL coat dish", "assay_type": "cell-based, human", "details": "10 nM C59, ES cells (Kh-1)", "description": "Human ES cells (KhES-1) were obtained from Institute for Frontier Medical Sciences, Kyoto University (Suemori H, et al. Biochem Biophys Res Commun. 345: 926-32, 2006). The human iPS cells 404C2 are cells obtained by introducing Oct3/4, Sox2, Klf4, L-MYC, LIN28 and p53shRNA into human fibroblasts, using an episomal vector, and these cells were obtained from Professor Yamanaka et al. in Kyoto University (Okita, et al, Nat Methods. 8: 409-412, 2011). The human iPS cells 836B1 are cells obtained by introducing Oct3/4, Sox2, Klf4, L-MYC, LIN28, GLIS1 and p53shRNA into human fibroblasts, using an episomal vector, and these cells were obtained from Professor Yamanaka et al. in Kyoto University. The ES cells and the iPS cells were cultured on SNL cells (Takahashi K, et al, Cell. 131: 861-872, 2007). The obtained cell mass was transferred on a dish (24-well plate (BD)) coated with 50 μg/ml ornithine (Sigma), 5 μg/ml laminin (Sigma) and 5 μg/ml fibronectin (BD Bioscience Pharmingen), and the culture was continued in Neurobasal (Invitrogen), to which B27 (Invitrogen), 2 mM L-Gln, and 10 units/ml penicillin and streptomycin (Invitrogen) had been added. […] Furthermore, the expression levels of the Foxg1, Lhx2, Emx2 and CoupTF1 genes in the obtained spheres were measured according to a qPCR method (FIG. 4B). […]"}},
  "data": [
    {"compound": "Cc1cc(-c2ccc(CC(=O)Nc3ccc(-c4cccnc4)cc3)cc2)ccn1", "note": "[C59]", "values": [
      {"measurement": "efficiency of inducing CoupTF1-negative Ctip2-positive cells", "setting": "[1]", "result": "not found a large difference"},
      {"measurement": "adhesion of spheres to an OFL coat dish", "setting": "[2]", "result": "did not adhere so much"}
    ]}
  ]
}
